Test results published in patent US9388181B2, “Substituted 1,2,3,4-tetrahydropyrido[3,4-E] pyrrolo[1,2-A]pyrimidines as kinase” (Allergan, Inc., priority 2014, dated 2016).

Legend:
[1] = biological target: VEGFR2 (KDR) (Homo sapiens (Human), UniProt P35968); test: VEGFR2 Kinase Assay (biochemical KDR kinase assay, ELISA); conditions: purified cytoplasmic domain KDR protein, 2.7 μM ATP
Description: Biochemical KDR kinase assays were performed in 96 well microtiter plates that were coated overnight with 75 μg/well of poly-Glu-Tyr (4:1) in 10 mM Phosphate Buffered Saline (PBS), pH 7.4. The coated plates were washed with 2 mls per well PBS+0.05% Tween-20 (PBS-T), blocked by incubation with PBS containing 1% BSA, then washed with 2 mls per well PBS-T prior to starting the reaction. Reactions were carried out in 100 μL reaction volumes containing 2.7 μM ATP in kinase buffer (50 mM Hepes buffer pH 7.4, 20 mM MgCl2, 0.1 mM MnCl2 and 0.2 mM Na3VO4). Test compounds were reconstituted in 100% DMSO and added to the reaction to give a final DMSO concentration of 5%. Reactions were initiated by the addition 20 ul per well of kinase buffer containing 200-300 ng purified cytoplasmic domain KDR protein (BPS Bioscience, San Diego, Calif.). Following a 15 minute incubation at 30° C., the reactions were washed 2 mls per well PBS-T. 100 μl of a monoclonal anti-phosphotyrosine antibody-peroxidase conjugate diluted 1:10,000 in PBS-T was added to the wells for 30 minutes. Following a 2 mis per well wash with PBS-Tween-20, 100 μl of O-Phenylenediamine Dihydrochloride in phosphate-citrate buffer, containing urea hydrogen peroxide, was added to the wells for 7-10 minutes as a colorimetric substrate for the peroxidase. The reaction was terminated by the addition of 100 μl of 2.5N H2SO4 to each well and read using a microplate ELISA reader set at 492 nm. IC50 values for compound inhibition were calculated directly from graphs of optical density (arbitrary units) versus compound concentration following subtraction of blank values.

[2] = biological target: VEGFR2 (Homo sapiens (Human), UniProt P35968); test: VEGFR2 Cellular Assay (FLIPR, VEGF induced intracellular calcium in HUVEC); type: cell-based; conditions: VEGF165 stimulation (10 ng/mL)
Sequence of VEGFR2 (P35968 20-1356): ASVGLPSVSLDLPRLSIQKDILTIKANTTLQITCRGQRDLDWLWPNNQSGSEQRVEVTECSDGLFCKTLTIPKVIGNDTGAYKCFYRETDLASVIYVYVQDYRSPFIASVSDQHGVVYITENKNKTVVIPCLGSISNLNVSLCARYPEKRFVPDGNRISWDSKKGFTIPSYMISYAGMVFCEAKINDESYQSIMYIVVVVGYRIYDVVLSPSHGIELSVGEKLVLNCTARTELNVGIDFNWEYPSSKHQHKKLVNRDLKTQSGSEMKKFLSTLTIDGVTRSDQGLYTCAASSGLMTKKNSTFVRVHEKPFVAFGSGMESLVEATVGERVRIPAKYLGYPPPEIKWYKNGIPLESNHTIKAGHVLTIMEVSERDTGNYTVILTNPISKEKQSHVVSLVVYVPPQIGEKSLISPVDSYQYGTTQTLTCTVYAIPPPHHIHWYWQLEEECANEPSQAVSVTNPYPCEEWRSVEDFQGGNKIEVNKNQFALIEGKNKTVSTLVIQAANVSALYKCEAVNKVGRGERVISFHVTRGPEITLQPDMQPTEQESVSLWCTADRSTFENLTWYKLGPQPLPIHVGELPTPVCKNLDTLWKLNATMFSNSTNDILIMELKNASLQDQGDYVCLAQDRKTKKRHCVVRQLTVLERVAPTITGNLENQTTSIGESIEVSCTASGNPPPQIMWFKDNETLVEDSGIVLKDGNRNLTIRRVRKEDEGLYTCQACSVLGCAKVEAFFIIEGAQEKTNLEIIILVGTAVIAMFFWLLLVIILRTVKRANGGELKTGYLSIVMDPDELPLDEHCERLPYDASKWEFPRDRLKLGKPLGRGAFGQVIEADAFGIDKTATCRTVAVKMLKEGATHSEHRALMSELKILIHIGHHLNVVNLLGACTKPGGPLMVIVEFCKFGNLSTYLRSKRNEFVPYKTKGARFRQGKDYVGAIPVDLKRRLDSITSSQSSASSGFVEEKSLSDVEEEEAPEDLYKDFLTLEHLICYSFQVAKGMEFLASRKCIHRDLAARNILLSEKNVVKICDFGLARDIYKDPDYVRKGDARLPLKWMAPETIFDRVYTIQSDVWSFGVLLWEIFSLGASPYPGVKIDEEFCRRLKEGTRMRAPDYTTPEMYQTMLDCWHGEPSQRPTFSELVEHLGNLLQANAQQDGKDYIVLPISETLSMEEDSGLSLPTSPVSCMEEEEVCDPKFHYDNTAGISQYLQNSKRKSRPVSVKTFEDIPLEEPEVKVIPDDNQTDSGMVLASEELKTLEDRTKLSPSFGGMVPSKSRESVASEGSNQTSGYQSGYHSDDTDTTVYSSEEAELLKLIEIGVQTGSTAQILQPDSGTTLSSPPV
Description: VEGFR2 Cellular Assay Automated FLIPR (Fluorometric Imaging Plate Reader) technology was used to screen for inhibitors of VEGF induced increases in intracellular calcium levels in fluorescent dye loaded endothelial cells. HUVEC (human umbilical vein endothelial cells) (Clonetics) were seeded in 384-well fibronectin coated black-walled plates overnight @ 37° C./5% CO2. Cells were loaded with calcium indicator Fluo-4 for 45 minutes at 37° C. Cells were washed 2 times (Elx405, Biotek Instruments) to remove extracellular dye. For screening, cells were pre-incubated with test agents for 30 minutes, at a single concentration (10 uM) or at concentrations ranging from 0.0001 to 10.0 uM followed by VEGF165 stimulation (10 ng/mL). Changes in fluorescence at 516 nm were measured simultaneously in all 384 wells using a cooled CCD camera. Data were generated by determining max-min fluorescence levels for unstimulated, stimulated, and drug treated samples. IC50 values for test compounds were calculated from inhibition of VEGF stimulated responses in the absence of inhibitor.

[3] = biological target: T1, PDGFRβ (Homo sapiens (Human), UniProt P09619); test: PDGFRβ Kinase Assay (biochemical, ELISA); conditions: purified cytoplasmic domain PDGFR-b protein, 36 μM ATP
Description: Biochemical PDGFRβ kinase assays were performed in 96 well microtiter plates that were coated overnight with 75 μg of poly-Glu-Tyr (4:1) in 10 mM Phosphate Buffered Saline (PBS), pH 7.4. The coated plates were washed with 2 mls per well PBS+0.05% Tween-20 (PBS-T), blocked by incubation with PBS containing 1% BSA, then washed with 2 mls per well PBS-T prior to starting the reaction. Reactions were carried out in 100 μL reaction volumes containing 36 μM ATP in kinase buffer (50 mM Hepes buffer pH 7.4, 20 mM MgCl2, 0.1 mM MnCl2 and 0.2 mM Na3VO4). Test compounds were reconstituted in 100% DMSO and added to the reaction to give a final DMSO concentration of 5%. Reactions were initiated by the addition 20 ul per well of kinase buffer containing 200-300 ng purified cytoplasmic domain PDGFR-b protein (Millipore). Following a 60 minute incubation at 30° C., the reactions were washed 2 mls per well PBS-T. 100 μl of a monoclonal anti-phosphotyrosine antibody-peroxidase conjugate diluted 1:10,000 in PBS-T was added to the wells for 30 minutes. Following a 2 mis per well wash with PBS-Tween-20, 100 μl of 0-Phenylenediamine Dihydrochloride in phosphate-citrate buffer, containing urea hydrogen peroxide, was added to the wells for 7-10 minutes as a colorimetric substrate for the peroxidase. The reaction was terminated by the addition of 100 μl of 2.5N H2SO4 to each well and read using a microplate ELISA reader set at 492 nm. IC50 values for compound inhibition were calculated directly from graphs of optical density (arbitrary units) versus compound concentration following subtraction of blank values.
Target sequence in this assay (P09619 554-1106): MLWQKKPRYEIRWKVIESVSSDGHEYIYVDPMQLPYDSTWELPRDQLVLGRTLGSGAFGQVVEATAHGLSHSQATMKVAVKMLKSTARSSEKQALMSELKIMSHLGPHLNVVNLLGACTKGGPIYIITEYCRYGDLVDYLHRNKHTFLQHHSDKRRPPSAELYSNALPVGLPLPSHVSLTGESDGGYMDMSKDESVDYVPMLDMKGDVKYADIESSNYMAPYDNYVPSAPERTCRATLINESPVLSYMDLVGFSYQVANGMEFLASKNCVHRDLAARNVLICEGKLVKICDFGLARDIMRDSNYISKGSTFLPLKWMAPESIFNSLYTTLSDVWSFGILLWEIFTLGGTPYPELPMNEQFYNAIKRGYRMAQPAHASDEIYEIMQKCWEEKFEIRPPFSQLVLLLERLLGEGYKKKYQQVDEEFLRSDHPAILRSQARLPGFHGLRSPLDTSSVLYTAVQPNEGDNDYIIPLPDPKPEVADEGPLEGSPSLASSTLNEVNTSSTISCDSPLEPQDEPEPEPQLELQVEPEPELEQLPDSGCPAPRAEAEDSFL

[4] = biological target: T1, PDGFRβ; test: PDGFRβ Cellular Assay (FLIPR, PDGF-induced intracellular calcium in NHDF-Ad); type: cell-based; conditions: PDGF-BB stimulation (30 ng/mL)
Description: NHDF-Ad (Normal Human Dermal Fibroblasts, Adult; Lonza) were seeded in 384-well fibronectin coated black-walled plates overnight @ 37° C./5% CO2. Cells were loaded with calcium indicator Fluo-4 for 45 minutes at 37° C. Cells were washed 2 times (Elx405, Biotek Instruments) to remove extracellular dye. For screening, cells were pre-incubated with test agents for 30 minutes, at a single concentration (10 uM) or at concentrations ranging from 0.0001 to 10.0 uM followed by PDGF-BB stimulation (30 ng/mL). Changes in fluorescence at 516 nm were measured simultaneously in all 384 wells using a cooled CCD camera. Data were generated by determining max-min fluorescence levels for unstimulated, stimulated, and drug treated samples. IC50 values for test compounds were calculated from % inhibition of PDGF-BB stimulated responses in the absence of inhibitor.
Target sequence in this assay (P09619 33-1106): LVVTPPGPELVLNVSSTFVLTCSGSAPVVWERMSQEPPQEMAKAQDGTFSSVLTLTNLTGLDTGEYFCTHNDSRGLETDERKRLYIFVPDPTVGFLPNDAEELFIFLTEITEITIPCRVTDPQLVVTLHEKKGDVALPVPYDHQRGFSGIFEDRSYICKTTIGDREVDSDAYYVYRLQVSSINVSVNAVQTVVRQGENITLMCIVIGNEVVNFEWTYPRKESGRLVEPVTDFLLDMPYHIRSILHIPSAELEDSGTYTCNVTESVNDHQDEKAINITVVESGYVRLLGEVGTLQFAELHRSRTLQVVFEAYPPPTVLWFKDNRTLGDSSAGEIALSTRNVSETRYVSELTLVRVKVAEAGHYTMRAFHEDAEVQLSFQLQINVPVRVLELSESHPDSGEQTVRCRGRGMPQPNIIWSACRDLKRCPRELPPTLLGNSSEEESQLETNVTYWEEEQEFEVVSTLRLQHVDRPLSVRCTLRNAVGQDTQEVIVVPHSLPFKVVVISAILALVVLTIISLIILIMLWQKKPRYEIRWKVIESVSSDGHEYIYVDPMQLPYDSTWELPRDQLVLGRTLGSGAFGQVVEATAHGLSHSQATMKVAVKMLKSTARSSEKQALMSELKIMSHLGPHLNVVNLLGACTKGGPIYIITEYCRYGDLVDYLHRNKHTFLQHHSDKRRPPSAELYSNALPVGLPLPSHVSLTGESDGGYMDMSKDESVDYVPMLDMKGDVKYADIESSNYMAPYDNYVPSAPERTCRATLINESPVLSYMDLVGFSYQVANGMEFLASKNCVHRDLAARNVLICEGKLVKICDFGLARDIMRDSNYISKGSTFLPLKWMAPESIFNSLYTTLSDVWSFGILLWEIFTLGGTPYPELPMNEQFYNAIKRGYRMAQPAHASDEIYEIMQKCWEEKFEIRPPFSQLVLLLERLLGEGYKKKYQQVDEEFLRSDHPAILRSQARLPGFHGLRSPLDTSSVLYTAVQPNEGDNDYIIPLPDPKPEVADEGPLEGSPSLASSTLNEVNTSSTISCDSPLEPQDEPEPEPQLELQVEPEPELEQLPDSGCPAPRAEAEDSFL

Sequence of VEGFR2 (KDR) (P35968 786-1356): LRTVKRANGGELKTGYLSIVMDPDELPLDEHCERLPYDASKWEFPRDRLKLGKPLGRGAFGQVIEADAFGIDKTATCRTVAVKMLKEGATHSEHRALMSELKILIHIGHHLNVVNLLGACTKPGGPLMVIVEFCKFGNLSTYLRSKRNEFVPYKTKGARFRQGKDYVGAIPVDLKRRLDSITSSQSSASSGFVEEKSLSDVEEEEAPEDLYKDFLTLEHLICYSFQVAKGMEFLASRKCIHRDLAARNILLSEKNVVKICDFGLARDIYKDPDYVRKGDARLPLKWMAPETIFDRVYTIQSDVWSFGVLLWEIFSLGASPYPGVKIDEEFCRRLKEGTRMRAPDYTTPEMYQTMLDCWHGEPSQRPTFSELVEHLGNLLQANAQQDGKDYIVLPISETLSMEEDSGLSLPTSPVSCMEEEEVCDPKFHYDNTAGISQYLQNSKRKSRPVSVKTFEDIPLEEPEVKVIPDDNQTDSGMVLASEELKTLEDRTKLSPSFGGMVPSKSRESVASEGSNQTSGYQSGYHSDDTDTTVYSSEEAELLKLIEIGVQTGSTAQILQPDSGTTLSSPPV

Compound | IC50 [1] [nM] | IC50 [2] [nM] | IC50 [3] [nM] | IC50 [4] [nM]
O=C(Nc1cccc(C(F)(F)F)c1)c1cccc(N2CCc3c(cnc4ccnn34)C2)c1 [Example 4, 3-(8,9-dihydropyrazolo[1,5-a]pyrido[3,4-e]pyrimidin-7(6H)-yl)-N-[3-(trifluoromethyl)phenyl] benzamide] | 6 | 70 | 27 | 192
CC(C)c1cccc(NC(=O)c2cccc(N3CCc4c(cnc5ccnn45)C3)c2)c1 [Example 3, 3-(8,9-dihydropyrazolo[1,5-a]pyrido[3,4-e]pyrimidin-7(6H)-yl)-N-(3-isopropylphenyl)benzamide] | 8 | 26 | 20 | –
CC(C)(C)OC(=O)Nc1cccc(N2CCc3c(cnc4ccnn34)C2)c1 [Example 8, tert-Butyl (3-(8,9-dihydropyrazolo[1,5-a]pyrido[3,4-e]pyrimidin-7(6H)-yl)phenyl)carbamate] | > 10000 | – | – | –
Cc1cccc(NC(=O)Nc2cccc(N3CCc4c(cnc5ccnn45)C3)c2)c1 [Example 12, 1-[3-(8,9-dihydropyrazolo[1,5-a]pyrido[3,4-e]pyrimidin-7(6H)-yl)phenyl]-3-(3-methylphenyl)urea] | 27 | – | 32 | –
CC(C)c1cccc(NC(=O)c2cccc(N3Cc4cnc5ccnn5c4C3)c2)c1 [Example 7, 3-(6,8-dihydro-7H-pyrazolo[1,5-a]pyrrolo[3,4-e]pyrimidin-7-yl)-N-(3-isopropylphenyl)benzamide] | > 10000 | – | – | –

The next lines start with the values.

IC50 [1] [nM] | IC50 [2] [nM] | IC50 [3] [nM] | IC50 [4] [nM] | Compound
6 | – | 21 | – | O=C(Nc1cccc(N2CCc3c(cnc4ccnn34)C2)c1)c1cccc(C(F)(F)F)c1 [Example 11, N-[3-(8,9-dihydropyrazolo[1,5-a]pyrido[3,4-e]pyrimidin-7(6H)-yl)phenyl]-3-(trifluoromethyl)benzamid]
101 | – | 202 | – | O=C(Nc1cccc(N2CCc3c(cnc4ccnn34)C2)c1)c1ccccc1 [Example 10, N-[3-(8,9-dihydropyrazolo[1,5-a]pyrido[3,4-e]pyrimidin-7(6H)-yl)phenyl]benzamide]
